The experiment is described as follows: Inhibition of ADP-induced platelet aggregation in canine platelet-rich plasma.

The structures appear in SMILES notation. Bridge positions count the residues as written; N and C are the ends. Square brackets hold non-standard residues; d marks the D form. Peptide text beside a SMILES is read from it. NMeR = CN[C@@H](CCCNC(=N)N)C(=O)O

The term IC50 denotes the concentration needed to halve the response being measured. Read a low IC50 as greater potency in that assay. As for `CC(=O)N(C)C(CCCNC(=N)N)C(=O)NCC1=CC(CC(=O)O)C(=O)N(c2ccccc2)CC1` (configuration not stated), the half-maximal inhibitory concentration (IC50) was determined as 720 nM. In other words, the sub-micromolar range. Under `CC(=O)N[C@H]1CSSC[C@@H](C(N)=O)NC(=O)[C@H](CC(=O)O)NC(=O)CNC(=O)[C@H](CCCN=C(N)N)N(C)C1=O` [SKF-106760] (Ac-C[NMeR]GDC-NH2; disulfide 1-5) stands 360 nM.

These data come from BindingDB's records for doi:10.1021/jm00099a027 (Smithkline Beecham Pharmaceuticals, 1992).
